# Measured values as given in publication PMC6032158, “Structure–Activity Relationship of Piplartine and Synthetic Analogues against Schistosoma mansoni and Cytotoxicity to Mammalian Cells” (International Journal of Molecular Sciences, 2018).
# What was measured:
# [1] = test system: murine fibroblast (NIH-3T3) cells; assay: MTT cytotoxicity assay in murine fibroblasts; assay type: cell-based
# Method: Next, the medium was removed and various concentrations (25–800 µg/mL) of samples reconstituted in 3% DMSO were applied. DMSO (3%) was used as a control. The plates were incubated for 24 h. Next, 15 µL of MTT solution (5 mg/mL in phosphate buffer) was added to each well and the plates were incubated for 2 h. Medium was discarded and 100 µL of DMSO was added to each well. Absorbance was determined using a spectrophotometer with a microplate reader at 595 nm (Molecular Devices Corporation, Sunnyvale, CA, USA).
# [2] = test system: 49-day-old S. mansoni adult worms; assay: In vitro experiments with adult worms of S. mansoni (mortality, motor activity); assay type: cell-based, Schistosoma mansoni; conditions: for Dead Worms (%) F / Motor Activity Reduction (%) Significant F / Motor Activity Reduction (%) Slight F: female worms; for Dead Worms (%) M / Motor Activity Reduction (%) Significant M / Motor Activity Reduction (%) Slight M: male worms
# Method: The Belo Horizonte (BH) strain of S. mansoni was maintained in Biomphalaria glabrata snails and Mesocricetus auratus hamsters at the Adolfo Lutz Institute (São Paulo, Brazil) according to standard procedures. Detailed methods for the infection of molluscs and hamsters, as well as for the recovery of parasites, were as described previously. Briefly, the intermediate host snails were exposed to light for approximately 3 h and cercariae of S. mansoni were subsequently harvested. […] All animals were handled in strict accordance with good animal practice as defined by the Animal Use Ethics Committee. The preparations and culture of schistosomes was performed as previously described. Briefly, hamsters were killed 49 days after infection for the recovery of adult schistosomes. Next, fresh adult worm pairs (male and female) were washed and placed in a 24-well culture plate (TPP, St. […] Adult schistosomes were maintained continuously in medium (with or without drugs) for 96 h as described below. In vitro assays in S. mansoni adults were performed with mated males and females. The worm pairs obtained from the infusion hamsters were washed twice with RPMI 1640 medium containing 200 U/mL penicillin, 200 μg/mL streptomycin and 2 μg/mL amphotericin B (Vitrocell, Campinas, Brazil). The mated parasites were then transferred into 24-well cell culture plates (TPP, St. […] Cultures of adult worms were monitored by microscopy or magnifying glass. The effect of the drug was assessed with emphasis on changes in worm motor activity and death of worms as previously described.
# [3] = test system: mouse BALB/cN macrophage (J774A.1) cell line; assay: Cell viability by flow cytometry in macrophages; conditions: 24 h, 25, 100 and 400 µg/mL, vs DMEM control
structure (smiles),measurement,setting,value
COc1cc(/C=C/C(=O)N(C(=O)NC2CCCCC2)C2CCCCC2)cc(OC)c1OC [Compound 1M],effect on NIH-3T3 cell viability (in words),"[1]; MTT, 24 h exposure, 25 to 800 µg/mL",considerable reduction in cell viability at concentrations of 400 and 800 μg/mL
same,Emax at 800 µg/mL,"[1]; Mus musculus, NIH3T3, 24 h, decrease in cell viability at the maximum concentration tested (800 μg/mL), NIH-3T3, 24 h",70.9 ± 1.2%
same,Dead Worms (%) F,"[2]; 5 µM, 24 h",0%
same,Motor Activity Reduction (%) Significant F,"[2]; 5 µM, 24 h",0%
same,Motor Activity Reduction (%) Slight F,"[2]; 5 µM, 24 h",0%
same,Dead Worms (%) M,"[2]; 5 µM, 24 h",0%
same,Motor Activity Reduction (%) Significant M,"[2]; 5 µM, 24 h",0%
same,Motor Activity Reduction (%) Slight M,"[2]; 5 µM, 24 h",0%
same,Dead Worms (%) F,"[2]; 5 µM, 48 h",0%
same,Motor Activity Reduction (%) Significant F,"[2]; 5 µM, 48 h",0%
same,Motor Activity Reduction (%) Slight F,"[2]; 5 µM, 48 h",0%
same,Dead Worms (%) M,"[2]; 5 µM, 48 h",0%
same,Motor Activity Reduction (%) Significant M,"[2]; 5 µM, 48 h",0%
same,Motor Activity Reduction (%) Slight M,"[2]; 5 µM, 48 h",0%
same,Dead Worms (%) F,"[2]; 5 µM, 72 h",0%
same,Motor Activity Reduction (%) Significant F,"[2]; 5 µM, 72 h",0%
same,Motor Activity Reduction (%) Slight F,"[2]; 5 µM, 72 h",0%
same,Dead Worms (%) M,"[2]; 5 µM, 72 h",0%
same,Motor Activity Reduction (%) Significant M,"[2]; 5 µM, 72 h",0%
same,Motor Activity Reduction (%) Slight M,"[2]; 5 µM, 72 h",0%
same,Dead Worms (%) F,"[2]; 5 µM, 96 h",0%
same,Motor Activity Reduction (%) Significant F,"[2]; 5 µM, 96 h",0%
same,Motor Activity Reduction (%) Slight F,"[2]; 5 µM, 96 h",0%
same,Dead Worms (%) M,"[2]; 5 µM, 96 h",0%
same,Motor Activity Reduction (%) Significant M,"[2]; 5 µM, 96 h",0%
same,Motor Activity Reduction (%) Slight M,"[2]; 5 µM, 96 h",0%
same,Dead Worms (%) F,"[2]; 10 µM, 24 h",0%
same,Motor Activity Reduction (%) Significant F,"[2]; 10 µM, 24 h",0%
same,Motor Activity Reduction (%) Slight F,"[2]; 10 µM, 24 h",0%
same,Dead Worms (%) M,"[2]; 10 µM, 24 h",0%
same,Motor Activity Reduction (%) Significant M,"[2]; 10 µM, 24 h",0%
same,Motor Activity Reduction (%) Slight M,"[2]; 10 µM, 24 h",0%
same,Dead Worms (%) F,"[2]; 10 µM, 48 h",0%
same,Motor Activity Reduction (%) Significant F,"[2]; 10 µM, 48 h",0%
same,Motor Activity Reduction (%) Slight F,"[2]; 10 µM, 48 h",0%
same,Dead Worms (%) M,"[2]; 10 µM, 48 h",0%
same,Motor Activity Reduction (%) Significant M,"[2]; 10 µM, 48 h",0%
same,Motor Activity Reduction (%) Slight M,"[2]; 10 µM, 48 h",0%
same,Dead Worms (%) F,"[2]; 10 µM, 72 h",0%
same,Motor Activity Reduction (%) Significant F,"[2]; 10 µM, 72 h",0%
same,Motor Activity Reduction (%) Slight F,"[2]; 10 µM, 72 h",0%
same,Dead Worms (%) M,"[2]; 10 µM, 72 h",0%
same,Motor Activity Reduction (%) Significant M,"[2]; 10 µM, 72 h",0%
same,Motor Activity Reduction (%) Slight M,"[2]; 10 µM, 72 h",0%
same,Dead Worms (%) F,"[2]; 10 µM, 96 h",0%
same,Motor Activity Reduction (%) Significant F,"[2]; 10 µM, 96 h",0%
same,Motor Activity Reduction (%) Slight F,"[2]; 10 µM, 96 h",0%
same,Dead Worms (%) M,"[2]; 10 µM, 96 h",0%
same,Motor Activity Reduction (%) Significant M,"[2]; 10 µM, 96 h",0%
same,Motor Activity Reduction (%) Slight M,"[2]; 10 µM, 96 h",0%
same,Dead Worms (%) F,"[2]; 25 µM, 24 h",0%
same,Motor Activity Reduction (%) Significant F,"[2]; 25 µM, 24 h",0%
same,Motor Activity Reduction (%) Slight F,"[2]; 25 µM, 24 h",0%
same,Dead Worms (%) M,"[2]; 25 µM, 24 h",0%
same,Motor Activity Reduction (%) Significant M,"[2]; 25 µM, 24 h",0%
same,Motor Activity Reduction (%) Slight M,"[2]; 25 µM, 24 h",0%
same,Dead Worms (%) F,"[2]; 25 µM, 48 h",0%
same,Motor Activity Reduction (%) Significant F,"[2]; 25 µM, 48 h",0%
same,Motor Activity Reduction (%) Slight F,"[2]; 25 µM, 48 h",0%
same,Dead Worms (%) M,"[2]; 25 µM, 48 h",0%
same,Motor Activity Reduction (%) Significant M,"[2]; 25 µM, 48 h",0%
same,Motor Activity Reduction (%) Slight M,"[2]; 25 µM, 48 h",0%
same,Dead Worms (%) F,"[2]; 25 µM, 72 h",0%
same,Motor Activity Reduction (%) Significant F,"[2]; 25 µM, 72 h",0%
same,Motor Activity Reduction (%) Slight F,"[2]; 25 µM, 72 h",0%
same,Dead Worms (%) M,"[2]; 25 µM, 72 h",0%
same,Motor Activity Reduction (%) Significant M,"[2]; 25 µM, 72 h",0%
same,Motor Activity Reduction (%) Slight M,"[2]; 25 µM, 72 h",0%
same,Dead Worms (%) F,"[2]; 25 µM, 96 h",0%
same,Motor Activity Reduction (%) Significant F,"[2]; 25 µM, 96 h",0%
same,Motor Activity Reduction (%) Slight F,"[2]; 25 µM, 96 h",0%
same,Dead Worms (%) M,"[2]; 25 µM, 96 h",0%
same,Motor Activity Reduction (%) Significant M,"[2]; 25 µM, 96 h",0%
same,Motor Activity Reduction (%) Slight M,"[2]; 25 µM, 96 h",0%
same,Dead Worms (%) F,"[2]; 50 µM, 24 h",0%
same,Motor Activity Reduction (%) Significant F,"[2]; 50 µM, 24 h",0%
same,Motor Activity Reduction (%) Slight F,"[2]; 50 µM, 24 h",0%
same,Dead Worms (%) M,"[2]; 50 µM, 24 h",0%
same,Motor Activity Reduction (%) Significant M,"[2]; 50 µM, 24 h",0%
same,Motor Activity Reduction (%) Slight M,"[2]; 50 µM, 24 h",0%
same,Dead Worms (%) F,"[2]; 50 µM, 48 h",0%
same,Motor Activity Reduction (%) Significant F,"[2]; 50 µM, 48 h",0%
same,Motor Activity Reduction (%) Slight F,"[2]; 50 µM, 48 h",0%
same,Dead Worms (%) M,"[2]; 50 µM, 48 h",0%
same,Motor Activity Reduction (%) Significant M,"[2]; 50 µM, 48 h",0%
same,Motor Activity Reduction (%) Slight M,"[2]; 50 µM, 48 h",0%
same,Dead Worms (%) F,"[2]; 50 µM, 72 h",0%
same,Motor Activity Reduction (%) Significant F,"[2]; 50 µM, 72 h",0%
same,Motor Activity Reduction (%) Slight F,"[2]; 50 µM, 72 h",0%
same,Dead Worms (%) M,"[2]; 50 µM, 72 h",0%
same,Motor Activity Reduction (%) Significant M,"[2]; 50 µM, 72 h",0%
same,Motor Activity Reduction (%) Slight M,"[2]; 50 µM, 72 h",0%
same,Dead Worms (%) F,"[2]; 50 µM, 96 h",0%
same,Motor Activity Reduction (%) Significant F,"[2]; 50 µM, 96 h",0%
same,Motor Activity Reduction (%) Slight F,"[2]; 50 µM, 96 h",0%
same,Dead Worms (%) M,"[2]; 50 µM, 96 h",0%
same,Motor Activity Reduction (%) Significant M,"[2]; 50 µM, 96 h",0%
same,Motor Activity Reduction (%) Slight M,"[2]; 50 µM, 96 h",0%
same,activity against S. mansoni adult worms (in words),"[2]; analogues 50, 25, 10 and 5 μM, piplartine 5 and 10 μM, up to 96 h",did not present biological activity against the S. mansoni parasite
same,effect on J774A.1 cell viability (in words),[3],"significantly altered (p < 0.05) cell viability in comparison with the negative control, but not in a toxic manner"
